Test results published in ChEMBL document CHEMBL1201862, “PubChem BioAssay data set” (2004).
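Cultured in 96-well plates, cells were exposed to test compound for 48 hours across five concentrations. GI50 is the concentration that inhibits growth by half.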 Active and inactive are the calls of the source. Cut-off read from the data, not from the text of the source: active = GI50 up to about 1.1 µM and inactive = higher.

Columns and labels:
Experiment in all cases: inhibition of tumour cell growth, NCI panel, 48 h
HCT-15 = tested on: HCT-15
OVCAR-5 = tested on: OVCAR-5
HCT-116 = tested on: HCT-116
NCI-H226 = tested on: NCI-H226
SK-MEL-28 = tested on: SK-MEL-28
HOP-92 = tested on: HOP-92
K562 = tested on: K562
SNB-19 = tested on: SNB-19
SR = tested on: SR
UACC-62 = tested on: UACC-62
KM12 = tested on: KM12
IGROV-1 = tested on: IGROV-1
RXF 393 = tested on: RXF 393
LOX IMVI = tested on: LOX IMVI
A498 = tested on: A498

Row | Structure (SMILES) | GI50 (HCT-15) [µM] | GI50 (OVCAR-5) | GI50 (HCT-116) | GI50 (NCI-H226) | GI50 (SK-MEL-28) | GI50 (HOP-92) | GI50 (K562) | GI50 (SNB-19) | GI50 (SR) | GI50 (UACC-62) | GI50 (KM12) | GI50 (IGROV-1) | GI50 (RXF 393) | GI50 (LOX IMVI) | GI50 (A498)
1 | Cc1ccc(C)c2sc3cc(=O)ccc-3nc12 | 29.4 | 30.8 µM (inactive) | 54.3 µM (inactive) | 75.2 µM (inactive) | 43.4 µM (inactive) | 28.1 µM (inactive) | 16 µM (inactive) | 91.6 µM (inactive) | 26.4 µM (inactive) | 17.5 µM (inactive) | 33.8 µM (inactive) | 82 µM (inactive) |  |  | 
2 | N#CC(NNC(=O)Cc1ccccc1)c1ccc(O)cc1 (centres undefined) | > 100 | > 100 µM (inactive) | > 100 µM (inactive) | > 100 µM (inactive) | > 100 µM (inactive) | 85.9 µM (inactive) | > 100 µM (inactive) |  | > 100 µM (inactive) | > 100 µM (inactive) | > 100 µM (inactive) | > 100 µM (inactive) | > 100 µM (inactive) | > 100 µM (inactive) | 
3 | O=C(CC(=O)Nc1ccc(Cl)cc1)NNCC(=O)Nc1nc(-c2ccccc2)cs1 |  |  | > 100 µM (inactive) | > 100 µM (inactive) | > 100 µM (inactive) |  | 72.4 µM (inactive) | > 100 µM (inactive) |  | 47.5 µM (inactive) | > 100 µM (inactive) | > 100 µM (inactive) | > 100 µM (inactive) | > 100 µM (inactive) | 
4 | CC(C)(C)c1ccc(OC2CCO2)cc1 (centres undefined) | 20 | 32.7 µM (inactive) | 21 µM (inactive) | 27.9 µM (inactive) | 98.6 µM (inactive) | 35.4 µM (inactive) | 17.3 µM (inactive) | 52.2 µM (inactive) |  | 24 µM (inactive) | 25.9 µM (inactive) | > 100 µM (inactive) |  |  | 43.2 µM (inactive)
5 | COc1ccccc1/N=N/C(C(=O)c1ccccc1)C(=O)c1ccccc1 | 14.9 | 32.1 µM (inactive) | 11.5 µM (inactive) | 14.4 µM (inactive) | 26.9 µM (inactive) |  | 16.9 µM (inactive) | 17.2 µM (inactive) |  | 13.2 µM (inactive) | 29.2 µM (inactive) | 27 µM (inactive) |  | 17.9 µM (inactive) | 25.2 µM (inactive)
6 | COc1ccc2c(c1)c1c3n2CCNN=C3CCC1 | > 70.1 | > 57.4 µM (inactive) | 99.5 µM (inactive) | > 100 µM (inactive) | > 100 µM (inactive) | > 49.2 µM (inactive) | > 81.1 µM (inactive) | > 100 µM (inactive) | 10.4 µM (inactive) | 60.4 µM (inactive) | > 100 µM (inactive) | > 85.7 µM (inactive) |  | > 64.6 µM (inactive) | > 100 µM (inactive)
7 | CC(C)NC(C)Cc1ccccc1 (centres undefined) | 3.97 | > 100 µM (inactive) | > 100 µM (inactive) | > 100 µM (inactive) | > 100 µM (inactive) | > 100 µM (inactive) | > 100 µM (inactive) | > 100 µM (inactive) | > 100 µM (inactive) | > 100 µM (inactive) | > 100 µM (inactive) | > 100 µM (inactive) | > 100 µM (inactive) | > 100 µM (inactive) | > 100 µM (inactive)
8 | COC(=O)C1C=CCC2CCCCC21N1CCCC1 (centres undefined) | > 100 | > 100 µM (inactive) | 46.1 µM (inactive) | 87.7 µM (inactive) | 98.9 µM (inactive) | 34 µM (inactive) |  | 82.2 µM (inactive) | 76.7 µM (inactive) | > 100 µM (inactive) | 53.6 µM (inactive) | > 100 µM (inactive) | > 100 µM (inactive) | > 100 µM (inactive) | > 100 µM (inactive)
9 | O=[N+]([O-])c1ccc(/C=N/C2CCCCC2)cc1 | > 100 | > 100 µM (inactive) | > 100 µM (inactive) | > 100 µM (inactive) | > 100 µM (inactive) | > 100 µM (inactive) | > 100 µM (inactive) | > 100 µM (inactive) | > 100 µM (inactive) | > 100 µM (inactive) | > 100 µM (inactive) | > 100 µM (inactive) | > 100 µM (inactive) | > 100 µM (inactive) | > 100 µM (inactive)
10 | COc1cc(/C=C\c2ccccn2)cc(OC)c1OC | 78.3 | > 100 µM (inactive) | > 100 µM (inactive) | > 100 µM (inactive) | > 100 µM (inactive) | 16.4 µM (inactive) | 32.1 µM (inactive) | > 100 µM (inactive) |  | 60 µM (inactive) | 63.8 µM (inactive) | > 100 µM (inactive) | > 100 µM (inactive) | 64 µM (inactive) | 78.5 µM (inactive)
11 | COC(=O)C1CCc2c1c(=O)n1c([nH]c3ccccc31)c2C#N (centres undefined) | > 100 | > 100 µM (inactive) | > 100 µM (inactive) | > 100 µM (inactive) | > 100 µM (inactive) | > 100 µM (inactive) | > 100 µM (inactive) | > 100 µM (inactive) |  | > 100 µM (inactive) | > 100 µM (inactive) | > 100 µM (inactive) | > 100 µM (inactive) | > 100 µM (inactive) | > 100 µM (inactive)
12 | [N-]=[N+]=Nc1ccc(CCN2CCN(c3cccc(C(F)(F)F)c3)CC2)cc1I | 25.2 | 34 µM (inactive) | 71.1 µM (inactive) | > 100 µM (inactive) | > 100 µM (inactive) |  | 52.6 µM (inactive) | > 100 µM (inactive) | 35.1 µM (inactive) | > 100 µM (inactive) | 43.8 µM (inactive) |  | 33.1 µM (inactive) | > 100 µM (inactive) | > 100 µM (inactive)
13 | Oc1cc(-c2ccccc2)c2ccccc2n1 | 58.9 | 64.4 µM (inactive) | 64.7 µM (inactive) | 25.8 µM (inactive) | 37.3 µM (inactive) | 5.62 µM (inactive) | 65.5 µM (inactive) |  | 45.5 µM (inactive) | 48.3 µM (inactive) | 71.4 µM (inactive) | 23.9 µM (inactive) | 36.2 µM (inactive) | 57.9 µM (inactive) | 
14 | CCOC(=O)C1(C)C2=CC=C(O2)C(C)(C)C2=CC=C(O2)C(C)(C)C2=CC=C(O2)C(C)(C)C2=CC=C1O2 | > 100 | > 100 µM (inactive) | 46.9 µM (inactive) | > 100 µM (inactive) | > 100 µM (inactive) | 36.5 µM (inactive) | > 100 µM (inactive) | > 100 µM (inactive) | 68.1 µM (inactive) |  | > 100 µM (inactive) | > 100 µM (inactive) | > 100 µM (inactive) | > 100 µM (inactive) | > 100 µM (inactive)
15 | O=C(O)c1ccc(S(=O)(=O)c2ccccc2)c([N+](=O)[O-])c1 | 93.1 | > 100 µM (inactive) | > 100 µM (inactive) | > 100 µM (inactive) | > 100 µM (inactive) | > 100 µM (inactive) | > 100 µM (inactive) | > 100 µM (inactive) | > 100 µM (inactive) | > 100 µM (inactive) | > 100 µM (inactive) | > 100 µM (inactive) | > 100 µM (inactive) | > 100 µM (inactive) | > 100 µM (inactive)
16 | Cn1nc(-c2ccccc2)c(C(=O)/C=C/c2ccccc2)c(N2CCCCC2)c1=O | 17.7 |  | 4.91 µM (inactive) |  | 14.5 µM (inactive) | 7.31 µM (inactive) | 4.7 µM (inactive) | > 100 µM (inactive) |  | 15.9 µM (inactive) |  | > 100 µM (inactive) | 12.8 µM (inactive) | 11.7 µM (inactive) | 
17 | CCOC(=O)C1=C(Nc2ccc(Br)cc2)OC/C1=N\NC(=O)c1ccccc1O | 11.7 | 46.1 µM (inactive) | 10.1 µM (inactive) | 38.9 µM (inactive) | > 81.3 µM (inactive) |  | 7.06 µM (inactive) | 10.9 µM (inactive) | 9.06 µM (inactive) | 2.67 µM (inactive) | 21.5 µM (inactive) | 6.46 µM (inactive) | 1.29 µM (inactive) | 5.37 µM (inactive) | > 47.3 µM (inactive)
18 | COC(=O)/C(C)=C(/CCC1(C)OCCO1)O[Si](C)(C)C | > 100 | > 100 µM (inactive) | > 100 µM (inactive) |  |  | > 100 µM (inactive) | > 100 µM (inactive) | > 100 µM (inactive) |  | > 100 µM (inactive) | > 100 µM (inactive) | > 100 µM (inactive) | > 100 µM (inactive) | > 100 µM (inactive) | 
19 | CC(=O)NC(CC(C)C)C(=O)NC(Cc1ccccc1)C(=S)N1CCCC1 (centres undefined) | > 100 | > 100 µM (inactive) |  | 74.8 µM (inactive) | > 100 µM (inactive) | > 100 µM (inactive) | > 100 µM (inactive) | > 100 µM (inactive) |  | > 100 µM (inactive) | > 100 µM (inactive) | > 100 µM (inactive) | > 100 µM (inactive) | > 100 µM (inactive) | > 100 µM (inactive)
20 | Oc1cc(C2OCCCO2)cc(O)c1O | > 100 | > 100 µM (inactive) | > 100 µM (inactive) | > 100 µM (inactive) | > 100 µM (inactive) |  | > 100 µM (inactive) | > 100 µM (inactive) | > 100 µM (inactive) | > 100 µM (inactive) | > 100 µM (inactive) | > 100 µM (inactive) |  |  | > 100 µM (inactive)
21 | CCOC(=O)[C@H](CCCNC(=O)OC(C)(C)C)NCc1ccc(OC)c(OC)c1 |  | > 100 µM (inactive) | > 100 µM (inactive) | > 100 µM (inactive) | > 100 µM (inactive) | > 100 µM (inactive) | > 100 µM (inactive) | > 100 µM (inactive) | > 100 µM (inactive) | > 100 µM (inactive) | > 100 µM (inactive) | > 100 µM (inactive) | > 100 µM (inactive) | > 100 µM (inactive) | > 100 µM (inactive)
